# From the METLIN SMRT retention time set (Domingo-Almenara et al. 2019)
# Test: gradient 5% acetonitrile 3 min, to 50% in 2 min, to 85% in 15 min, held 3 min, 100 µL/min
# Conditions: column: Zorbax Extend-C18 2.1 x 50 mm; eluents: water / acetonitrile, 0.1% formic acid
# Method in brief: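 Pure standards were analyzed in mixtures of ~100 molecules using HPLC coupled to a quadrupole time-of-flight mass spectrometer, in both positive and negative ionization mode. Separation used a Zorbax Extend-C18 column (2.1 × 50 mm, 1.8 μm) at 100 μL/min, with water and acetonitrile each containing 0.1% formic acid. Dead and dwell volumes were 40 μL and 900 μL, and data were collected over 3 months. Retention time was read from computationally picked adduct peaks, each inspected manually.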
row,RP-LC retention time [s],Structure (SMILES)
1,909,Cc1sc(-c2noc(C(C)C)n2)cc1S(=O)(=O)N1CCC(C(=O)N2CCOCC2)CC1
2,1080,Cn1cccc1C(=O)C(=O)Nc1ccc(Cl)cc1F
3,768,Cc1ccc(CN2CCN(C3CCN(C(=O)Nc4ccc(C)cc4)CC3)C(=O)C2=O)cc1
4,938,COc1ccc(Cl)cc1NC(=O)Cn1c(=O)n(-c2ccc(F)cc2)c(=O)c2c1cc(C)n2C
5,1230,O=C(NCc1ccc(C(F)(F)F)cc1)c1c(O)c2cccnc2n(-c2ccccc2)c1=O
6,603,CC(C(=O)NCCCN1CCN(C)CC1)n1c(=O)c(C(F)(F)F)nc2ccccc21 (stereo not drawn)
7,946,O=C(NCCc1ccccc1)C(=O)NCC1OCCc2ccccc21 (stereo not drawn)
8,842,CCOC(=O)CCC(=O)N1CCCC(COCc2ccccc2)C1 (stereo not drawn)
9,878,CCCS(=O)(=O)N1CCc2ccc(NC(=O)Oc3ccccc3)cc2C1
10,780,O=C(Cc1ccc(F)cc1)NC(c1ccccc1)c1nnc(N2CCCC2)o1 (stereo not drawn)
11,746,O=C(c1cc(=O)c2ccccc2o1)N1CCC(c2nnc(-c3ccc(F)cc3)o2)CC1
12,659,Cc1cncc(CN2CCC(=C3c4ccc(Cl)cc4CCc4cccnc43)CC2)c1
13,697,Cc1nnc(-c2cc(NS(C)(=O)=O)c(C)s2)o1
14,917,Cc1cccc(NC(=O)CSc2nccc(N3CCN(c4cc(C)ccc4C)CC3)n2)c1
15,641,CCOC(=O)c1ccc(Nc2c(-c3ccc(OC)cc3)nc3cnccn23)cc1
16,1190,CCCCN(C)C(=O)Cn1c(=O)c2cnc(-c3ccc(Cl)cc3)nc2n(CC)c1=O
17,941,CC(C)Cc1cc(-c2nnc3sc(COc4ccccc4Cl)nn23)n[nH]1
18,564,Cc1ccc(Cn2cc(-c3ccncc3)cc2C(=O)N2CCC(N3CCCCC3)CC2)cc1
19,618,O=C(Cn1nc(Cc2ccncc2)c2ccccc2c1=O)Nc1ccc(Cl)cn1
20,883,O=C(Cc1cccs1)N1CCC(c2nc(-c3ccccc3)no2)C1 (stereo not drawn)
21,768,O=C(Cc1nnc(-c2ccc3ncccc3c2)o1)Nc1cccc(Cl)c1
22,600,Cc1ccccc1Cn1cc(-c2ccncc2)cc1C(=O)NC(C)c1ccccn1 (stereo not drawn)

row,RP-LC retention time [s],Structure (SMILES)
1,838,Cc1nnc2ccc(N3CCC(C(=O)NCCCN4CCN(c5ccc(F)cc5)CC4)CC3)nn12
2,605,Cc1cccc2nnc(N3CCN(C(=O)c4cc5c(s4)CCCC5)CC3)n12
3,658,CCN(CC)S(=O)(=O)c1ccc2c(c1)cc(C(=O)NCCC(C)N1CCCC1)n2C (stereo not drawn)
4,682,CC(=O)Nc1ccc(CCc2nc3ccc(C(=O)NC(C)CCc4ccccc4)cc3[nH]2)cc1 (stereo not drawn)
5,649,O=S(=O)(c1ccc2nc(N3CCN(c4ccccn4)CC3)ccc2c1)N1CCCCC1
6,703,Cc1noc([C@@H]2CC(F)(F)CN2C(=O)c2ccoc2)n1
7,722,O=C(CCc1c(-c2ccc(Br)cc2)nc2ccccn12)NCCCc1ccccc1
8,777,COc1ccc(CSc2nccc3c2ccn3CC(=O)N2CCN(c3ccc(F)cc3)CC2)cc1
9,548,O=C(Cc1cccnc1)N1CCC(c2nc(-c3ccncc3)no2)C1 (stereo not drawn)
10,615,COc1ccc(NS(=O)(=O)c2cc3n(c2)CCCNC3=O)cc1
11,919,c1ccc(CCc2nc(-c3ccnc(N4CCOCC4)c3)no2)cc1
12,1100,Cc1cccc(-c2noc(Cn3c(=O)n(-c4ccc(Cl)cc4)c(=O)c4sccc43)n2)c1
13,678,CCCNS(=O)(=O)c1cc2n(c1)CCCN(C(C)C)C2=O
14,742,Cc1oc2ccc(NS(=O)(=O)c3ccc(F)cc3)cc2c1C(=O)O
15,617,CN(C)c1ccc(CNC(=O)c2ccc3c(c2)NC(=O)C2CCCCN32)cc1 (stereo not drawn)
16,892,Cc1cccc(C)c1NC(=O)Cn1nc(N2CCSCC2)c2ccccc2c1=O
17,909,O=C(Nc1ccc2c(c1)OCCO2)c1cccc2c1CCN2C(=O)Nc1ccc(F)cc1
18,1120,Cc1cc(C(=O)Nc2nc(-c3ccc(C)c(C)c3)c(C)s2)no1
19,642,O=C(CSc1ccc(N2CCCC(C(=O)NC3CC3)C2)nn1)NCc1cc(F)cc(F)c1 (stereo not drawn)
20,883,CN(C1CCCCC1)S(=O)(=O)c1ccc(NC(=O)c2ccco2)cc1
21,553,CN(C)C[C@@H]1CN(C)C[C@H]1NC(=O)c1ccc(Br)cc1
22,682,Cc1ccc2nsnc2c1NC(=O)Cn1c(-c2cncs2)nc2ccccc21

row,RP-LC retention time [s],Structure (SMILES)
1,703,Cc1nc(-c2ccncc2)nc2c1CC(=O)N2C1CCCC1
2,1090,CCOc1ccc(-c2nc(C3CC(=O)N(c4ccc(C)cc4)C3)no2)cc1OCC (stereo not drawn)
3,840,O=C(NCc1ccc(F)cc1Cl)c1cn(-c2cc(N3CCOCC3)ncn2)cn1
4,704,Cc1ccc2c(=O)c(C(=O)N3CCCC3)cn(CC(=O)Nc3ccccc3Cl)c2n1
5,801,Cc1noc(COC2CCCN(C(=O)c3ccc(Cl)s3)C2)n1 (stereo not drawn)
6,1010,CS(=O)(=O)N1CCC(C(=O)NCc2ccc(Cl)cc2)Oc2ccccc21 (stereo not drawn)
7,595,CCCNC(=O)C1CCCN(c2ccc(SCC(=O)NCc3ccc(OC)cc3)nn2)C1 (stereo not drawn)
8,735,Cc1ccc(NC(=O)Cn2c(C)nc3onc(C)c3c2=O)cc1F
9,660,CC(=O)Nc1cccc(-c2nc(-c3ccc4ncn(C(C)C)c4c3)no2)c1
10,728,N#Cc1cccc(C(=O)NC2CCN(c3cc(-c4ccc(Cl)cc4)[nH]n3)C2)c1 (stereo not drawn)
11,808,O=C(NCc1ccco1)C1CCCN(c2ccc(=O)n(-c3cccc(Cl)c3)n2)C1 (stereo not drawn)
12,601,COc1ccc(NC(=O)Cn2c(N3CCCC3)nc(C)cc2=O)cc1OC
13,688,Cc1nc(-c2cnccn2)n(CC(=O)Nc2ccc3c(c2)OCCO3)c(=O)c1C
14,794,COc1ccccc1NC(=O)Cn1ncc2c(c1=O)N(CC1CC1)C(=O)CS2
15,679,COc1ccc(CC(=O)NCCc2cn(C)c3ncccc23)cc1Cl
16,754,C=CC(=O)Nc1cccc(Sc2nc(Nc3ccc(N4CCN(C)CC4)cc3)ncc2Cl)c1
17,796,O=C(NCc1ccc2c(c1)OCO2)C1CCN(C(=O)c2ccc(-c3noc(C4CC4)n3)cc2)CC1
18,606,Cc1ccc2c(c1)C(O)(CC(=O)c1cccc(N)c1)C(=O)N2 (stereo not drawn)
19,608,Cc1cc(C)n(CCNC(=O)C(=O)Nc2cc(C)on2)n1
20,637,COC(=O)C1=CN(C2CC2)c2cc(N3CCN(c4ccccn4)CC3)c(F)cc2S1(=O)=O
21,777,CCOc1ccc(NC(=O)N2CCC3(CC2)NC(=O)c2ccc(F)cc2N3C)cc1
22,896,CCCCn1cc(S(=O)(=O)Nc2ccc(OC)cc2)c2cccnc21

row,RP-LC retention time [s],Structure (SMILES)
1,1200,Cc1cccc(Oc2cc(N3CCC(C(=O)Nc4cccc(C(C)C)c4)CC3)ncn2)c1C
2,818,Cc1ccc(S(=O)(=O)N2CCC(c3nc(C(=O)N(C)C)c(C)o3)CC2)cc1
3,713,Cc1ccc(-c2cc3c(=O)n(Cc4noc(CN5CCC(C)CC5)n4)ccn3n2)cc1
4,810,Cc1ccccc1OCC(=O)Nc1cnn(C)c(=O)c1N1CCOCC1
5,601,COc1cccc(CN2CCC(N3C(=O)C4(CCCCC4)C3c3ccncc3)CC2)c1OC (stereo not drawn)
6,1050,CC1CCCC(NC(=O)CCn2cnc3onc(-c4ccc(F)cc4)c3c2=O)C1C (stereo not drawn)
7,1140,COc1ccc(-c2ccnn2-c2ccc(SCC(=O)Nc3cc(C)ccc3C)nn2)cc1
8,588,Cc1noc(C)c1CN1CCN(C(=O)c2ccc3ccccc3n2)CC1
9,598,COc1nn(C)cc1C(=O)Nc1nnc(-c2sc(C)nc2C)o1
10,887,O=C(NCC1(c2cccs2)CC1)c1ccc(F)c(F)c1
11,1220,c1ccc(-c2nnc(-c3ccccc3)nn2)cc1
12,699,CCC(=O)N1CCc2cc(N3CC(C(=O)NCc4ccccc4)CC3=O)ccc21 (stereo not drawn)
13,589,COc1ccc(-c2cc(C(=O)N3CCCC3)c(C)n2C)cc1
14,894,O=c1c2cc(-c3ccc(Cl)cc3)nn2ccn1Cc1nc(-c2ccccn2)no1
15,746,CC(C)c1nnc(NC(=O)C2CC(=O)N(CCc3c[nH]c4ccc(F)cc34)C2)s1 (stereo not drawn)
16,614,O=C(CS(=O)(=O)Cc1ccccc1)Nc1nc(-c2ccccn2)cs1
17,723,CCn1cc(CC(=O)NCc2ccc(F)cc2F)c2cccnc21
18,709,CCNc1nc(C)cc(N2CCN(C(=O)Nc3cc(Cl)ccc3OC)CC2)n1
19,946,COc1ccc(C)cc1NC(=O)Cn1nc2c(Oc3ccc(Cl)cc3)nccn2c1=O
20,854,O=C(NCc1ccc(F)cc1)c1ccc(-c2ccsc2)nc1
21,795,COc1ccc(-c2cc(N3CCN(C(=O)c4ccc(C(C)(C)C)cc4)CC3)ncn2)cc1
22,896,COc1ccc(OC)c(NC(=O)N2CCC3(CC2)N=C(c2ccc(C)c(C)c2)C(=O)N3)c1
